“Also recorded” adds a separate entry of the source.
Key:
Format in all cases: cell-based
[1] = tested on: IL-2 production of T-lymphocytes; assay: IL-2 concentration in supernatants of stimulated T-lymphocytes/PBL, CTLL bioassay; settings: FIG. 4; for suppression of IL-2 production: anti-CD3 antibody stimulation (3 μg/ml immobilized), inhibitors 50 µM, supernatants after 24 hours; for IL-2 activity in supernatants / T-cell proliferation as reflected by IL-2 concentration in supernatants: immobilized anti-CD3 antibody (3 μg/ml) with or without crosslinked FasL (50 ng/ml)
Description: FIG. 4 illustrates the correlation of IL-2 expression and the use of caspase inhibitors using a bar diagram. […] The findings shown in FIG. 4 are based on experiments in which 106 ^6 PBL/ml were cultivated with immobilized anti-CD3 antibody (3 μg/ml) and FasL ([…]) in the presence or absence of the caspase inhibitors referred to above (50 µM). The supernatants were removed after 24 hours and examined with the help of a CTLL bioassay for their IL-2 concentration.
For this purpose, T-lymphocytes (10^6/ml) were stimulated with immobilized antiCD3 antibody (3 μg/ml) with or without crosslinked FasL (50 ng/ml). The supernatants of these preparations with a caspase inhibitor or without a caspase inhibitor as control were removed after the stimulation period and their respective IL-2 concentration was measured using a CTTL bioassay. The IL-2 concentration in the supernatants reflects the T-cell proliferation.

[2] = tested on: human peripheral blood lymphocytes; assay: Proliferation of human PBL/T-cells stimulated with anti-CD3 antibodies, [3H] thymidine incorporation; settings: for inhibition of the stimulation (cell proliferation) brought about by the anti-CD3: human PBL, inhibitor 25 to 100 μM, four-day cultivation; for inhibition of the stimulation (cell proliferation) brought about by the anti-CD3 / effect on cell proliferation (cpm, [3H] thymidine incorporation): FIG. 1; for effect on cell proliferation (cpm, [3H] thymidine incorporation): human T-cells, 10 μg/ml soluble anti-CD3 antibodies, inhibitor concentrations above 25 μM
Description: For this purpose the T-cells were stimulated with 10 μg/ml soluble anti-CD3 antibodies in the presence of various caspase inhibitors. […] Plotted, the proliferation of the stimulated T-cells (cpm, measured by [^3H] thymidine incorporation) is found as a function of increasing concentrations of caspase inhibitors.
This means that the activity of caspase-8 is significant for the IL-2 production of T-cells. In the experiments on which FIG. 5 is based, PBL were activated with 10 μg/ml soluble anti-CD3 antibody in the presence or absence of zVAD-fink (50 μM) and in the presence of anti-CD3 antibody zVAD-fmk and 500 U/ml recombinant human IL-2, respectively.
For this purpose, the latter were prepared through Ficoll-Hypaque centrifugation. The cells (5×10^4 cells per well) were then cultivated on 96-well plates in the presence of different caspase inhibitors or, for control purposes, in their absence. The concentration of the caspase inhibitors was varied in a range of 25 to 100 μM. Finally, the cells were stimulated through anti-CD3 antibodies (TR66) or through a combined stimulation with anti-CD3 antibodies and soluble recombinant FasL with or without anti-FLAG sequence antibodies 1 μg/ml.
Cell proliferation was measured during the last 18 hours of the four-day cultivation period. The measuring variable for cell proliferation was the incorporation of [^3H] thymidine into the proliferating cells.

caspase-8 = molecular target: T1, caspase-8 (Homo sapiens, UniProt Q14790); assay: Western blot of procaspase-8 cleavage in lysates of stimulated human T-lymphocytes; settings: anti-CD3 antibody and crosslinked sFasL, 6 hours, IETD-fmk 50 μM; FIG. 6
T1 construct: procaspase-8, 55 kDa fraction, or proteolytically cleaved, active caspase-8, 26 kDa fraction, respectively; endogenous in cells; host or cells: human T-lymphocytes stimulated with anti-CD3 antibody and crosslinked sFasL
Description: FIG. 6 provides a Western blot. Human T-cells were cultivated either without stimulation (control), with soluble anti-CD3 antibody alone (3 μg/ml), or with anti-CD3 antibody and sFasL (50 ng/ml) which, as described above, is crosslinked via its FLAG sequence. The cell lysates were examined in accordance with the times shown in FIG. 6, with regard to the expression of procaspase-8 or of cleavage products of the procaspase-8.
In a further experimental approach, T-cells were stimulated with a combination of anti-CD3 antibodies and FasL for a period of 6 hours, namely in the presence of 50 µM of the caspase-8 inhibitor IETD-fmk.
After 0, 2, 4, 6 and 22 hours, cells were taken from the different preparations and lysated. The cell lysates were examined with the Western blot technique with respect to their caspase-8 activity (procaspase-8, 55 kDa fraction, or proteolytically cleaved, active caspase-8, 26 kDa fraction, respectively).

T1 sequence (Q14790 whole entry): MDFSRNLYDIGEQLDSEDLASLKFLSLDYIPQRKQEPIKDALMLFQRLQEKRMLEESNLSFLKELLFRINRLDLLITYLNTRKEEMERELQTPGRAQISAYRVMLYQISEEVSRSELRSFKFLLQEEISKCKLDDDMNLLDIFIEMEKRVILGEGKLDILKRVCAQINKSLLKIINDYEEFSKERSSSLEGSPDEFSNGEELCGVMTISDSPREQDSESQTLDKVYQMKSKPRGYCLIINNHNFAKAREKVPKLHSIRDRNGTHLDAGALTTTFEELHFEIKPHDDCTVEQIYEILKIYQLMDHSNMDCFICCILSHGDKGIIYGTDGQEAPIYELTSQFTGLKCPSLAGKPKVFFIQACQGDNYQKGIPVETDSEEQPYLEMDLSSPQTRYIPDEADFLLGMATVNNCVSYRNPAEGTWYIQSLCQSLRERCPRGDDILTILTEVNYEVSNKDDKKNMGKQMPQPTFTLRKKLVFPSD

proteolytic cleavage of caspase-8 during stimulation (caspase-8) | Substance | suppression of IL-2 production [1] | IL-2 activity in supernatants [1] | T-cell proliferation as reflected by IL-2 concentration in supernatants [1] | cell proliferation with inhibitor plus exogenous recombinant human IL-2 ([2]; PBL, 10 μg/ml soluble anti-CD3 antibody, zVAD-fmk 50 μM and 500 U/ml IL-2, FIG. 5) | number of cells as against the control ([2]; PBL, 10 μg/ml soluble anti-CD3 antibody, zVAD-fmk 50 μM, FIG. 5) | inhibition of the stimulation (cell proliferation) brought about by the anti-CD3 [2] | effect on cell proliferation (cpm, [3H] thymidine incorporation) [2] | active 26 kDa caspase-8 fraction/band in Western blot (caspase-8)
– | zVAD-fmk | particularly effective | only weak | blocks | increases dramatically | clear reduction | complete inhibition; also recorded: partial inhibition | clear inhibiting effect | –
effectively blocked | IETD-fmk | particularly effective | only weak | blocks | – | – | complete inhibition | clear inhibiting effect | cannot be detected; also recorded: does not lead to any 26 kDa band being detected
